Source: patent US5925769A, “Acetylenic 1,5-diarylpyrazoles as antiinflammatory agents” (Ortho Pharmaceutical, Corp., priority 1998, dated 1999)

Assays:
[1] = molecular target: T1, Sheep seminal vesicle (SSV) cyclooxygenase (Ovis aries, UniProt P05979); test: Procedure I: inhibition of sheep seminal vesicle (SSV) cyclooxygenase; type: biochemical; settings: SSV cyclooxygenase; read-out: Proc. I IC50
T1 construct: Sheep seminal vesicle (SSV) cyclooxygenase (95% pure); purchased Biomol (Plymouth Meeting, PA); host or cells: sheep seminal vesicle
T1 sequence (P05979 25-600): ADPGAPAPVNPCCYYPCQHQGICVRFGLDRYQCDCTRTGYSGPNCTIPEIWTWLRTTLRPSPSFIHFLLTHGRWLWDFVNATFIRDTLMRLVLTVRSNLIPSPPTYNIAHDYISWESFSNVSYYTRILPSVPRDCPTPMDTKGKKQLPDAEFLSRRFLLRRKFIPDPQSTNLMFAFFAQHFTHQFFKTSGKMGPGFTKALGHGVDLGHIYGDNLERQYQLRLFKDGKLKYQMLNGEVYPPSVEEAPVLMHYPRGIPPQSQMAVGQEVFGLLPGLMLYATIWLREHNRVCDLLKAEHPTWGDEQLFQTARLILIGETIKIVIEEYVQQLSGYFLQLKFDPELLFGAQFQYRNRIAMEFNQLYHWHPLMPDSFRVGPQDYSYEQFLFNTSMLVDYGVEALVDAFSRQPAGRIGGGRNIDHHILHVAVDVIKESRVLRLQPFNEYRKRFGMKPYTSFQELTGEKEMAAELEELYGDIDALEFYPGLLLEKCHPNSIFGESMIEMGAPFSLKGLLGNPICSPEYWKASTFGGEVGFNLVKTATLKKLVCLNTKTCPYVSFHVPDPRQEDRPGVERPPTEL
Method in brief: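 Turnover of [1-14C]-arachidonic acid by SSV cyclooxygenase ran 20 min after a 5 min preincubation at 37° C with test compound. Products (PGD2, PGE2, etc.) were extracted, resolved by TLC and quantified by radio-imaging; inhibition came from comparing curve areas with and without compound.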

5-LO [2] = molecular target: T2, 5-LO (Rattus norvegicus, UniProt P12527); test: Procedure II: 5-LO activity (5-HETE) in broken RBL-1 cells (homogenate supernatant); type: biochemical; settings: RBL-1 broken cell supernatant; read-out: Proc. II 5-LO IC50
T2 construct: the supernatant was saved as the source of enzymes; endogenous in cells; host or cells: RBL-1 (rat basophilic leukemia) cells
T2 sequence (P12527 1-673): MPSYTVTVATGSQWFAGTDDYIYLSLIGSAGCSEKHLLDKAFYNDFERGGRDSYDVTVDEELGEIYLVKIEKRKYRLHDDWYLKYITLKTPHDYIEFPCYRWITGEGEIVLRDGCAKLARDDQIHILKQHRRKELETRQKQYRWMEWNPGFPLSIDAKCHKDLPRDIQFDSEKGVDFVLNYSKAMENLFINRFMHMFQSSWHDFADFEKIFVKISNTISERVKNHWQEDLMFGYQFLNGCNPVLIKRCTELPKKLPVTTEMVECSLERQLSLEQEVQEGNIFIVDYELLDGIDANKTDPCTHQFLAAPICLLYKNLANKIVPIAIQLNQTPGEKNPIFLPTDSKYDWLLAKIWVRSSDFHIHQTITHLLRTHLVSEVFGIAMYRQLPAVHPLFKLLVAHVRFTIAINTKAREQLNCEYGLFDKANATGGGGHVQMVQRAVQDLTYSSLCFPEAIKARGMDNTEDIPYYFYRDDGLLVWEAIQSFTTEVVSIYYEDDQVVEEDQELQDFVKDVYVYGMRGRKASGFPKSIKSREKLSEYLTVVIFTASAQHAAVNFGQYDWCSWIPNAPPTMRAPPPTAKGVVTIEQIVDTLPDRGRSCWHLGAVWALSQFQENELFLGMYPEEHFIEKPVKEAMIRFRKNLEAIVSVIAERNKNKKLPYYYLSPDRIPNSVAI
Method in brief: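 Supernatant from rat RBL-1 homogenate (9,220×g) was pre-incubated 5 min at 37 °C with 2 mM CaCl2 and compound or 1% DMSO, then with 1-^14C-arachidonic acid for 20 min at 37 °C.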

5-LO [3] = molecular target: T2, 5-LO; test: Procedure III: 5-LO (5-HETE) in intact RBL-1 cells; type: cell-based; settings: calcium ionophore A 23187, read-out: Proc. III 5-LO IC50
Method in brief: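 Intact RBL-1 cells at 1×10^5 cells/mL in HBSS were preincubated with vehicle or drug, pelleted and resuspended, then given 1-^14C-AA. 5-HETE (5-LO) and PgD2 (CO) were separated by TLC after acidification/extraction and quantified by radioimaging; IC50 from regression curve fit.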

CO = test: Procedure IV: ex vivo eicosanoid synthesis assay using dogs, CO (TxB2); type: in vivo; settings: dog, oral, 5 mg/kg
Protocol: (§1) Adult beagle or mongrel dogs (10-15 kg) of either sex were fasted overnight prior to the initiation of each experiment. The forelimb was clipped and swabbed with an alcohol prep (70% isopropanol). Blood was drawn by venipuncture into syringes containing lithium heparin (Starstead, Newton, N.C.) immediately prior to administration of compound or vehicle and then at various intervals following dosing. The test compound was administered orally as a suspension in 0.5% methocel. At various times after dosing, blood samples were drawn and placed on an electric rocker platform to assure complete and continuous mixing. White blood cell (wbc) counts were performed using a Sysmex hematology analyzer. This was done in an effort to normalize the number of leukocytes to be stimulated with calcium ionophore. A 1.0 mL aliquot of whole blood was challenged with 50 μL of a 2.6×10^-5 M solution of calcium ionophore A23187 (Calbiochem, La Jolla, Calif.) prepared in DMSO and diluted in HBSS. After a 15 minute incubation at 37° C., the reaction was stopped by placing the samples in an ice bath (4° C.) for 5 minutes and then centrifuging at 11,000×g for 5 minutes to separate the plasma fraction from blood cells. The plasma fraction was removed, diluted in an appropriate buffer, and analyzed for the presence of LTB4 and TxB2 by standard RIA techniques.

5-LO [4] = test: Procedure IV: ex vivo eicosanoid synthesis assay using dogs, 5-LO (LTB4); type: in vivo; settings: dog, oral, 5 mg/kg
Protocol: as §1

## COc1ccc(-n2nc(C#CC(C)N(O)C(C)=O)cc2-c2ccc(Cl)cc2)cc1 (stereo not shown) [Cpd 35, N-acetyl-N-(1-(5-(4-chlorophenyl)-1-(4-methoxyphenyl)pyrazol-3-yl)-1-butyn-3-yl)hydroxylamine]
[1]
  IC50: 2540 nM
5-LO [2]
  IC50: 110 nM
5-LO [3]
  IC50: 8.1 µM
CO; 2 h
  % inh CO: 92%
CO; 4 h
  % inh CO: 75%
CO; 6 h
  % inh CO: 81%
CO; 8 h
  % inh CO: 62%
CO; 24 h
  % inh CO: 68%
5-LO [4]; 2 h
  % inh 5-LO: 34%
5-LO [4]; 4 h
  % inh 5-LO: 20%
5-LO [4]; 6 h
  % inh 5-LO: 26%
5-LO [4]; 8 h
  % inh 5-LO: 31%
5-LO [4]; 24 h
  % inh 5-LO: 12%
